Data published in US20040259823A1, “Cationic amphiphiles as transfection vehicles” (priority 2001, published 2004).

Assays:
Type in all cases: cell-based
COS-7 and HepG2 cells [1] = assay: Transfection with pCMV GFP plasmid, % GFP positive cells by FACS (cell line not given); conditions: cell line and helper lipid not given
Procedure: (§1) Transfections were carried out following standard protocols as is described in EP 0755924. In numerous publications variations of transfection protocols are given. A person acquainted with the field of non-viral transfections, in particular transfections using cationic amphiphiles will be able to use the cationic amphiphiles of the invention in transfection methods known per se. In standard experiments COS-7 cells are transfected with plasmid DNA containing the β-galactosidase reporter gene. Upon successful transfection the cell produces the enzyme β-galactosidase whose activity can be easily measured. Other plasmids comprising alternative reporter genes such as the gene encoding Green Fluorescent Protein or Chloroamphenicol Acetyl Transferase are suited as well. For analyzing stable transfection a plasmid containing the neomycin resistance gene can be used. Toxicity of the cationic amphiphiles towards the cells can be monitored qualitatively and quantitatively by visual inspection of the cells and by a protein determination.
(§2) A solution of cationic amphiphile in a 50/50 molar ratio with DOPE, DOPC or cholesterol in chloroform was dried under a stream of nitrogen. The residual solvent was removed under vacuum. The lipid film was hydrated in water at room temperature and sonicated to clarity in a bath sonicator immediately before use.
(§3) A 4.7 kb pair plasmid containing the GFP reporter gene under control of the cytomegalovirus immediate early gene promoter/enhancer (pCMV GFP).DNA was isolated from E. coli using a Qiagen Plasmid Kit (QIAGEN Inc, USA). The plasmid concentration was determined by measuring the absoption at 260 nm using the relation 1.0 OD=50 μg/ml. The OD260/OD280 value was 1.95.
(§4) COS-7 and HepG2 cells were cultured in Dulbecco's Modified Eagle Medium (DMEM Gibco The Netherlands) containing 7% of fetal calf serum, 2 mM L-Glutamine, 100 units/ml of penicilin and […] of streptomycin at 37° C. in CO2/air (1:19).
(§5) Cells (1×10^5 cells/well) were seeded in 12-well plates and were allowed to grow overnight.
(§6) The complex of cationic amphiphile/helper lipid (1:1) with pCMV GFP was prepared at the charge ratio 2.5:1 (15 nmol lipid and 1 μg DNA), in 100 μl 10 mM HEPES (pH=7.4, 150 mM NaCl). After 10-15 min incubation at room temperature, the resulting complex was diluted in 1 ml medium (DMEM) and 0.5 ml of the mixture was added to the cells and incubated for 4 h at 37° C. The transfection efficiency expressed as a percentage of GFP positive cells was measured by FACS (Fluorescence Activated Cell Soorting) 48 hours after the transfection.
(§7) Control wells underwent identical steps except that no cationic amphiphile was added.

HepG2 [2] = assay: Cell survival after transfection (Table 3); conditions: HepG2, DOPE; further: tested at 6.8 µM
Procedure: as §1, §4, §5, §6, §7

HepG2 [3] = assay: Transfection with pCMV GFP plasmid, % GFP positive cells by FACS (Table 3); conditions: HepG2, DOPE
Procedure: as §1, §2, §3, §4, §5, §6, §7

COS-7 and HepG2 cells [4] = assay: Cell survival after transfection (cell line not given); conditions: cell line and helper lipid not given; for % surv / % surv mean: Table 11
Procedure: as §1, §4, §5, §6, §7
Wherever % surv mean is given: tested at 6.8 µM.

SMILES | % TE (COS-7 and HepG2 cells [1]; Table 1) | % TE (COS-7 and HepG2 cells [1]; Table 2) | % TE (COS-7 and HepG2 cells [1]; Table 7) | % TE (COS-7 and HepG2 cells [1]; Table 8) | % TE (COS-7 and HepG2 cells [1]; Table 9) | % TE (COS-7 and HepG2 cells [1]; Table 10) | % surv cells (COS-7 and HepG2 cells [4]; Table 1) | % surv cells (COS-7 and HepG2 cells [4]; Table 2) | % surv cells (COS-7 and HepG2 cells [4]; Table 7) | % surv cells (COS-7 and HepG2 cells [4]; Table 8) | % surv cells (COS-7 and HepG2 cells [4]; Table 9) | % surv cells (COS-7 and HepG2 cells [4]; Table 10) | other results
CCCCCCCC/C=C\CCCCCCCC[n+]1ccc(C)cc1.[Cl-] [SF38, 1-(9′-cis-octadecenyl)-4-methyl-pyridinium Chloride] | – | – | – | – | – | – | – | – | – | – | – | – | % TE (COS-7 and HepG2 cells [1]; Table 4): 5.43%; % TE (COS-7 and HepG2 cells [1]; Table 6): 0.47%; % surv cells (HepG2 [2]; first value): 23.6%; % surv cells Mean (HepG2 [2]): 22.05%; % surv cells (HepG2 [2]; second value): 20.5%; % TE (HepG2 [3]; first value): 0.82%; % TE mean (HepG2 [3]): 0.555%; % TE (HepG2 [3]; second value): 0.29%; % surv cells (COS-7 and HepG2 cells [4]; Table 4): 63.19%; % surv cells (COS-7 and HepG2 cells [4]; Table 6): 94.13%
CCCCCCCC/C=C\CCCCCCCC[n+]1ccc(CCCCCCCCCCCCCCC)cc1.[Cl-] [SF44, 1-(9′-cis-octadecenyl)-4-pentadecyl-pyridinium Chloride] | – | – | – | – | – | – | – | – | – | – | – | – | % TE (COS-7 and HepG2 cells [1]; Table 4): 10.13%; % TE (COS-7 and HepG2 cells [1]; Table 5): 1.64%; % TE (COS-7 and HepG2 cells [1]; Table 6): 8.89%; % TE (COS-7 and HepG2 cells [1]; Table 11, first value): 9.1%; % TE mean (COS-7 and HepG2 cells [1]; Table 11): 8.67%; % TE (COS-7 and HepG2 cells [1]; Table 11, second value): 8.24%; % surv cells (HepG2 [2]; first value): 45.21%; % surv cells Mean (HepG2 [2]): 49.18%; % surv cells (HepG2 [2]; second value): 53.15%; % TE (HepG2 [3]; first value): 12.53%; % TE mean (HepG2 [3]): 11.185%; % TE (HepG2 [3]; second value): 9.84%; % surv cells (COS-7 and HepG2 cells [4]; Table 4): 66.51%; % surv cells (COS-7 and HepG2 cells [4]; Table 5): 92.1%; % surv cells (COS-7 and HepG2 cells [4]; Table 6): 93.99%; % surv (COS-7 and HepG2 cells [4]; first value): 90.36%; % surv mean (COS-7 and HepG2 cells [4]): 88.91%; % surv (COS-7 and HepG2 cells [4]; second value): 87.46%
CCCCCCCC/C=C\CCCCCCCC[n+]1ccc(CCCCCCCCCCCCC)cc1.[Cl-] [SF30, 1-(9′-cis-octadecenyl)-4-tridecyl-pyridinium Chloride] | 9.73% | 16.61% | 13.61% | 3.09% | 13.61% | 5.32% | 78.45% | 46.45% | 84.28% | 75.35% | 84.28% | 60.16% | –
CCCCCCCCCCCCCCCC[n+]1ccc(CCCCCCCCCCCCC)cc1.[Cl-] [SF36, 1-hexadecyl-4-tridecyl-pyridinium Chloride] | 1.39% | 15.06% | 25.36% | 4.46% | 2.73% | 1.75% | 76.77% | 36.8% | 84.28% | 64.88% | 63.36% | 37.75% | –
CCCCCCCC/C=C\CCCCCCCCC(CCCCCCCC/C=C\CCCCCCCC)c1cc[n+](C)cc1.[Cl-] [S2, reference compound] | 25.17% | 16.27% | 51.9% | 12.91% | 7.55% | 1.78% | 62.6% | 43.38% | 82.51% | 60.78% | 65.19% | 21.81% | % TE (COS-7 and HepG2 cells [1]; Table 11, first value): 41.2%; % TE mean (COS-7 and HepG2 cells [1]; Table 11): 42.8%; % TE (COS-7 and HepG2 cells [1]; Table 11, second value): 44.4%; % surv (COS-7 and HepG2 cells [4]; first value): 87.64%; % surv mean (COS-7 and HepG2 cells [4]): 87.24%; % surv (COS-7 and HepG2 cells [4]; second value): 86.84%
CCCCCCCCCCCCCc1cc[n+](CCCCCCCC)cc1.[Cl-] [SF32, 1-octyl-4-tridecyl-pyridinium Chloride] | 0.83% | 6.99% | 1.56% | 4.44% | 5.19% | 2.19% | 71.07% | 44.08% | 81.56% | 72.1% | 56.32% | 78.75% | –
CCCCCCCCCCCCCC[n+]1ccc(CCCCCCCCCCCCC)cc1.[Cl-] [SF35, 1-tetradecyl-4-tridecyl-pyridinium Chloride] | 18.92% | 10.48% | 6.4% | 3.23% | 3.32% | 3.23% | 65.49% | 42.35% | 82.58% | 72.37% | 68.67% | 70.39% | –
CCCCCCCCCCCCCc1cc[n+](CCCCCCCCCCCC)cc1.[Cl-] [SF34, 1-dodecyl-4-tridecyl-pyridinium Chloride] | 13.51% | 7.13% | 4.3% | 4.77% | 4.3% | 6.26% | 56.91% | 40.88% | 84.47% | 50.43% | 68.01% | 67.89% | –
CCCCCCCCCCCCCCCCCC[n+]1ccc(CCCCCCCCCCCCC)cc1.[Cl-] [SF37, 1-stearyl-4-tridecyl-pyridinium Chloride] | 4.4% | 18.39% | 8.5% | 5.02% | 2.95% | 2.74% | 70.04% | 41.67% | 75.65% | 70.7% | 64.58% | 63.85% | –
CCCCCCCCCCCCCc1cc[n+](CCCCCCCCCC)cc1.[Cl-] [SF33, 1-decyl-4-tridecyl-pyridinium Chloride] | 3.07% | 9.71% | 0.05% | 3.82% | 3.85% | 5.77% | 78.47% | 39.82% | 87.79% | 75.05% | 68.99% | 69.94% | –
CCCCCCCC/C=C\CCCCCCCC[n+]1ccc(CCCCCCCCCCCCCCCCCCC)cc1.[Cl-] [SF14, 1-(9′-cis-octadecenyl)4nonadecyl-pyridinium Chloride] | – | – | – | – | – | – | – | – | – | – | – | – | % TE (COS-7 and HepG2 cells [1]; Table 4): 7.72%; % TE (COS-7 and HepG2 cells [1]; Table 5): 2.79%; % TE (COS-7 and HepG2 cells [1]; Table 6): 1.6%; % TE (COS-7 and HepG2 cells [1]; Table 11, first value): 2.41%; % TE mean (COS-7 and HepG2 cells [1]; Table 11): 3.1%; % TE (COS-7 and HepG2 cells [1]; Table 11, second value): 3.78%; % surv cells (COS-7 and HepG2 cells [4]; Table 4): 78.64%; % surv cells (COS-7 and HepG2 cells [4]; Table 5): 87.81%; % surv cells (COS-7 and HepG2 cells [4]; Table 6): 93.14%; % surv (COS-7 and HepG2 cells [4]; first value): 88.63%; % surv mean (COS-7 and HepG2 cells [4]): 87.805%; % surv (COS-7 and HepG2 cells [4]; second value): 86.98%
